Reference: patent US6537974B2, “Method of treating arrhythmias” (CV Therapeutics, Inc., priority 2000, dated 2003)
Values belong to the compound of their own block, whether it stands above or below them.

How the values were obtained:
AV node (AH interval) = assay: Electrophysiology study: single intravenous bolus of CVT-510, effect on AH interval, heart rate, blood pressure; assay type: in vivo, human
Experimental: (§1) The effect of CVT-510 on prolongation of AH interval, a measure of an adenosine A1 mediated effect of CVT-510, and on the heart rate (sinus rate) of patients with PSVT was tested in patients undergoing a clinically indicated electrophysiology study. In the first study patients volunteers were administered a single bolus of. CVT-510. In the second study PSVT was induced in patients prior to the administration of CVT-510.
All antiarrhythmic agents, including digoxin, beta-blockers and calcium-channel blockers were discontinued for five half-lives prior to the study.
Patients were excluded from the study if the PR interval was >200 ms or resting heart rate was <60 or >100/min. Other exclusion criteria included evidence of ventricular preexcitation, Class II-IV congestive heart failure or asthma. Patients were also required to have normal baseline electrophysiologic parameters, including a paced AV nodal Wenckebach cycle length 500 ms, an AH interval between 60 and 125 ms and an HV interval 35-55 ms. All patients were 18 years of age.
Quadripolar catheters were introduced percutaneously and advanced under fluoroscopic guidance to the high right atrium and across the tricuspid annulus to record the His bundle potential. […] Data were stored on optical disk. All patients had continuous ECG and non-invasive blood pressure monitoring throughout the study.
Cardiac stimulation was performed with a programmable stimulator with an isolated constant-current source. Stimuli were delivered as rectangular pulses of 2 ms duration at four times diastolic threshold. The study design was open-label with dose escalation, with the latter determined by tolerability. A single intravenous bolus of CVT-510 was administered to each patient after baseline electrophysiologic measurements were made.
After a bolus dose of CVT-510 was given, blood pressure, heart rate, 12-lead ECG and AH and HV intervals were recorded at 1, 5, 10, 15, 20 and 30 min and then every 15 min for up to 1 hour post-bolus or until the parameters returned to baseline. The AH and HV intervals were determined by measuring the last interval during a 15 beat drive at a paced cycle length of 600, 500 and 400 ms (unless precluded by pacing-induced AV nodal Wenckebach).
Administration of CVT-510 started at a dose of 0.3 μg/kg. Dose escalation proceeded with additional groups of patients receiving doses of 1, 3, 7.5, 10, 15 and 30 μg/kg based on tolerability and the absence of AV nodal Wenckebach or 3° AV block during sinus rhythm.
Data are expressed as mean ±SD. Based on the results of the normality test, a paired t-test or a non-parametric signed-rank test (SR) was used to determine the significance of CVT-510's effects on heart rate, blood pressure, ECG and AV nodal conduction times (AH and HV) for each dosing group (e.g., 0.3, 1.0, 3.0, 7.5, 10.0, 15.0 and 30.0 μg/kg). Similarly, analysis of variance (ANOVA) or the Kruskal-Wallis test (KW) was used to compare the AH intervals during sinus rhythm and atrial pacing at all doses. No adjustment for multiple comparisons were made, and a P value <0.05 were used to determine the significance of the differences between mean values.

patients with PSVT = assay: Treatment of patients with induced PSVT with CVT-510 boluses: conversion to sinus rhythm; assay type: in vivo, human; conditions: for % conversion after Bolus 1 / % conversion after Bolus 2 / % cumulative conversion: patients with PSVT
Experimental: as §1

A1 adenosine receptor = target: T1, A1 adenosine receptor (Homo sapiens, UniProt P30542); assay: Specificity for the A1 adenosine receptor: CPX antagonism, left ventricular pressure
T1 sequence (P30542 1-326): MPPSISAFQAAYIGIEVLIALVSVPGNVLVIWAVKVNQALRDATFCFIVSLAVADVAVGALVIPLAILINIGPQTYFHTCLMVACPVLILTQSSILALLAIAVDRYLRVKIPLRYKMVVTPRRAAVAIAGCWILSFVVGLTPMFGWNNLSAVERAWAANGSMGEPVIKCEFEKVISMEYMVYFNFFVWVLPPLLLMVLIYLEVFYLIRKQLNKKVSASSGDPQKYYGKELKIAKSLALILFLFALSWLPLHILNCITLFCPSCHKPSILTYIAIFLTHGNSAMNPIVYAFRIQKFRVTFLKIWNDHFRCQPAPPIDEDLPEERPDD

[1] = in vivo; cited from earlier work

HV prolongation (patients with PSVT; at low concentrations): without causing | hypotension (patients with PSVT; at low concentrations): without causing | effect on dpdt^−1 max (A1 adenosine receptor): no effect | effect on left ventricular pressure (A1 adenosine receptor): no effect | effects on the AV node in the presence of the selective A1 receptor antagonist CPX (A1 adenosine receptor; with CPX, effects on coronary conductance not abolished): completely abolished
SMILES: OC[C@H]1O[C@@H](n2cnc3c(N[C@@H]4CCOC4)ncnc32)[C@H](O)[C@@H]1O [CVT-510, 6-(3-(R)-aminotetrahydrofuranyl)purine riboside]
effect on AV nodal conduction (AV node (AH interval); bolus doses 0.3-30 μg/kg, patients): slows AV nodal conduction in a dose-dependent manner | time of maximal effect on the AH interval after dosing (AV node (AH interval); dose of 7.5 μg/kg, human patients): one | half-life compared with adenosine (AV node (AH interval); in vivo): relatively long | effect on sinus rate (AV node (AH interval); patients): no effect | effect on systemic blood pressure (AV node (AH interval); patients): no effect | onset of action (AV node (AH interval); post-administration): ≤ 1 min | time by which effects were mostly eliminated (AV node (AH interval); post-administration): ≤ 20 min | % conversion after Bolus 1 (patients with PSVT; Dose Level 3 (n = 4)): 75% | % conversion after Bolus 2 (patients with PSVT; Dose Level 3 (n = 4)): 25% | % cumulative conversion (patients with PSVT; Dose Level 3 (n = 4)): 100% | % conversion after Bolus 1 (patients with PSVT; Dose Level 5 (n = 9)): 78% | % conversion after Bolus 2 (patients with PSVT; Dose Level 5 (n = 9)): 0% | % cumulative conversion (patients with PSVT; Dose Level 5 (n = 9)): 78% | % conversion after Bolus 1 (patients with PSVT; Dose Level 7.5 (n = 4)): 100% | % conversion after Bolus 2 (patients with PSVT; Dose Level 7.5 (n = 4)): 0% | % cumulative conversion (patients with PSVT; Dose Level 7.5 (n = 4)): 100% | % conversion after Bolus 1 (patients with PSVT; Dose Level 10 (n = 5)): 90% | % conversion after Bolus 2 (patients with PSVT; Dose Level 10 (n = 5)): 0% | % cumulative conversion (patients with PSVT; Dose Level 10 (n = 5)): 90% | % conversion after Bolus 1 (patients with PSVT; Dose Level 12.5 (n = 4)): 75% | % conversion after Bolus 2 (patients with PSVT; Dose Level 12.5 (n = 4)): 25% | % cumulative conversion (patients with PSVT; Dose Level 12.5 (n = 4)): 100% | % conversion after Bolus 1 (patients with PSVT; Dose Level 15 (n = 10)): 80% | % conversion after Bolus 2 (patients with PSVT; Dose Level 15 (n = 10)): 10% | % cumulative conversion (patients with PSVT; Dose Level 15 (n = 10)): 90% | depressing sinus or AV nodal conduction after restoring SR (patients with PSVT; at low concentrations): without causing | termination of PSVT (patients with PSVT; at low concentrations): rapidly terminates PSVT

SMILES: C[C@H]1O[C@@H](O[C@H]2[C@@H](O)C[C@H](O[C@H]3[C@@H](O)C[C@H](O[C@H]4CC[C@@]5(C)[C@H](CC[C@@H]6[C@@H]5C[C@@H](O)[C@]5(C)[C@@H](C7=CC(=O)OC7)CC[C@]65O)C4)O[C@@H]3C)O[C@@H]2C)C[C@H](O)[C@@H]1O [Digoxin]
delayed onset of action [1]: about 30 min | time to peak effects after administration [1]: 3 to 4 h
